Measured values as given in patent publication US12435061B2 (priority 2020, dated 2025).
Like-named read-outs stand apart in the source and are kept apart here.

Molecular target: hTRPV3 (Homo sapiens (Human), UniProt Q8NET8)
Assay: Whole-cell patch clamp, hTRPV3 Phase 1 / Phase 2 currents
Type: cell-based
In short: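 Currents are activated by 20 μM 2-APB or by perfusate at 28 °C or warmer, in Ringer's solution, and quantified at ±80 mV.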

[1] = Phase 1 current, inward, whole-cell patch clamp, read-out: hTRPV3 Patch P1 Inwd
[2] = Phase 1 current, read-out: hTRPV3 (nM) (Phase 1)
[3] = Phase 2 current, inward, whole-cell patch clamp, read-out: hTRPV3 Patch P2 Inwd
[4] = Phase 2 current, read-out: hTRPV3 (nM) (Phase 2)

hTRPV3, sequence (Q8NET8 whole entry): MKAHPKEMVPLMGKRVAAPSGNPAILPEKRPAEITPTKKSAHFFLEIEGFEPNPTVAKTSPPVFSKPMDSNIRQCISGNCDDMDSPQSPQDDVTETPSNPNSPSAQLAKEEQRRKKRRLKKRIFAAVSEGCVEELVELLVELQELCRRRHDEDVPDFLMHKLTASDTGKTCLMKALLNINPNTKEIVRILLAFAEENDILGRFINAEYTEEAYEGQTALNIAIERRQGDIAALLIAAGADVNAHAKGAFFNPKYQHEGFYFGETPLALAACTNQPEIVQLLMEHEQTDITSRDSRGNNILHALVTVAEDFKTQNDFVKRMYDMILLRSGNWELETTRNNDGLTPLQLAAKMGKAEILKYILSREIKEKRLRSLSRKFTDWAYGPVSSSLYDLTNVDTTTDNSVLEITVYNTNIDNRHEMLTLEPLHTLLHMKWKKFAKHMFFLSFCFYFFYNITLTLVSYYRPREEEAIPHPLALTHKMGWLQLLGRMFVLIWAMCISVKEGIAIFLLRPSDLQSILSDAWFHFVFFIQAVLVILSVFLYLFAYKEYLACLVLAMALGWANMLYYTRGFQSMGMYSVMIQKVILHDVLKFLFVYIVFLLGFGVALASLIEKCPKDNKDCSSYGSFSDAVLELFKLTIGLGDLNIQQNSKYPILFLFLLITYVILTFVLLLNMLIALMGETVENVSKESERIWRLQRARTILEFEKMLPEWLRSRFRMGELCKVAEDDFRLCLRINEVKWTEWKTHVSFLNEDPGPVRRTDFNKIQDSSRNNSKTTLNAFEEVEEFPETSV

Row | SMILES | IC50 [1] | IC50 [2] | IC50 [3] | IC50 [4] | further results
1 | NC(=O)c1cc(Cc2ccccc2)ccc1N1CC[C@H](Oc2ncccc2Cl)C1 [Compound 1-145, (S)-5-benzyl-2-(3-(3-chloropyridin-2-yloxy)pyrrolidin-1-yl)benzamide] | > 1000 nM | 1950 nM | 100 to 1000 nM | 749 nM | –
2 | OCc1cc(-c2ccccc2)ccc1N1CC[C@H](Oc2ccc(Cl)cn2)C1 [Compound 1-147, (S)-(4-(3-(5-chloropyridin-2-yloxy)pyrrolidin-1-yl)biphenyl-3-yl)methanol] | 100 to 1000 nM | 171 nM | – | – | –
3 | OCC(O)c1cc(-c2ccccc2)ccc1N1CC[C@H](Oc2ccc(C(F)(F)F)cn2)C1 (stereo partly drawn) [Compound 1-148, 1-(4-((S)-3-(5-(trifluoromethyl)pyridin-2-yloxy)pyrrolidin-1-yl)biphenyl-3-yl)ethane-1,2-diol] | 100 to 1000 nM | 550 nM | 100 to 1000 nM | 699 nM | –
4 | CCc1ccccc1-c1ccc(N2CC[C@H](Oc3ccc(C(F)(F)F)cn3)C2)c(CO)c1 [Compound 1-149, (S)-(2′-ethyl-4-(3-(5-(trifluoromethyl)pyridin-2-yloxy)pyrrolidin-1-yl)biphenyl-3-yl)methanol] | 10 to 100 nM | 34.7 nM | < 10 nM | 10.7 nM | –
5 | OCc1cc(-c2ccccc2F)ccc1N1CC[C@H](Oc2ccc(C(F)(F)F)cn2)C1 [Compound 1-150, (S)-(2′-fluoro-4-(3-(5-(trifluoromethyl)pyridin-2-yloxy)pyrrolidin-1-yl)biphenyl-3-yl)methanol] | 10 to 100 nM | 71.7 nM | 10 to 100 nM | 74.7 nM | –
6 | O=C(NCCO)c1cc(-c2ccccc2)ccc1N1CC[C@H](Oc2ccc(C(F)(F)F)cn2)C1 [Compound 1-153, (S)—N-(2-hydroxyethyl)-4-(3-(5-(trifluoromethyl)pyridin-2-yloxy)pyrrolidin-1-yl)biphenyl-3-carboxamide] | > 1000 nM | 4420 nM | – | – | –
7 | O=C(NCCO)c1cc(-c2ccccc2Cl)ccc1N1CC[C@H](Oc2ccc(C(F)(F)F)cn2)C1 [Compound 1-156, (S)-2′-chloro-N-(2-hydroxyethyl)-4-(3-(5-(trifluoromethyl)pyridin-2-yloxy)pyrrolidin-1-yl)biphenyl-3-carboxamide] | > 1000 nM | 3750 nM | – | – | –
8 | Cc1cccnc1O[C@H]1CCN(c2ccc(Oc3ccccc3)cc2C(N)=O)C1 [Compound 1-163] | > 1000 nM | 2180 nM | – | – | –
9 | O=C(O)c1cc(-c2ccccc2)ccc1N1CC[C@H](Oc2ccc(C(F)(F)F)cn2)C1 [Compound 1-165, (S)-4-(3-(5-(trifluoromethyl)pyridin-2-yloxy)pyrrolidin-1-yl)biphenyl-3-carboxylic acid] | > 1000 nM | > 3200 nM | – | – | –
10 | O=C(O)c1cc(-c2ccccc2Cl)ccc1N1CC[C@H](Oc2ccc(C(F)(F)F)cn2)C1 [Compound 1-166, (S)-2′-chloro-4-(3-(5-(trifluoromethyl)pyridin-2-yloxy)pyrrolidin-1-yl)biphenyl-3-carboxylic acid] | > 1000 nM | ~2210 nM | > 1000 nM | ~2230 nM | –
11 | Cc1cccnc1O[C@H]1CCN(c2ccc(-c3ccccc3)cc2C(C)O)C1 (stereo partly drawn) [Compound 1-169, 1-(4-((S)-3-(3-methylpyridin-2-yloxy)pyrrolidin-1-yl)biphenyl-3-yl)ethanol] | 100 to 1000 nM | 476 nM | 100 to 1000 nM | 655 nM | –
12 | OCCCc1cc(-c2ccccc2)ccc1N1CC[C@H](Oc2ncccc2C(F)(F)F)C1 [Compound 1-170, (S)-3-(4-(3-(3-(trifluoromethyl)pyridin-2-yloxy)pyrrolidin-1-yl)biphenyl-3-yl)propan-1-ol] | – | – | 100 to 1000 nM | 551 nM | –
13 | Cc1cccnc1O[C@H]1CCN(c2ccc(-c3ccccc3Cl)cc2C(C)O)C1 (stereo partly drawn) [Compound 1-172, 1-(2′-chloro-4-((S)-3-(3-methylpyridin-2-yloxy)pyrrolidin-1-yl)biphenyl-3-yl)ethanol] | 100 to 1000 nM | 882 nM | – | – | –
14 | Cc1ccccc1-c1ccc(N2CC[C@H](Oc3ccc(C(F)(F)F)cn3)C2)c(CCCO)c1 [Compound 1-176, (S)-3-(2′-methyl-4-(3-(5-(trifluoromethyl)pyridin-2-yloxy)pyrrolidin-1-yl)biphenyl-3-yl)propan-1-ol] | > 1000 nM | > 3200 nM | > 1000 nM | 2550 nM | –
15 | OCc1csc(-c2cccc(N3CC[C@H](Oc4ccc(C(F)(F)F)cn4)C3)c2)n1 [Compound 1-177] | > 1000 nM | – | – | – | –
16 | Cc1ccc(O[C@H]2CCN(c3ccc(-c4ccccc4C)nc3CO)C2)nc1 [Compound 1-189, (S)-(3-(3-(5-methylpyridin-2-yloxy)pyrrolidin-1-yl)-6-o-tolylpyridin-2-yl)methanol] | 100 to 1000 nM | 636 nM | > 1000 nM | 1120 nM | –
17 | Cc1ccc(O[C@H]2CCN(c3ccc(-c4ccccc4C#N)nc3CO)C2)nc1 [Compound 1-190, (S)-2-(6-(hydroxymethyl)-5-(3-(5-methylpyridin-2-yloxy)pyrrolidin-1-yl)pyridin-2-yl)benzonitrile] | > 1000 nM | > 3200 nM | > 1000 nM | > 3200 nM | –

Row | SMILES | IC50 [1] | IC50 [2] | IC50 [3] | IC50 [4] | further results
18 | COc1ccccc1-c1ccc(N2CC[C@H](Oc3ccc(C)cn3)C2)c(CO)n1 [Compound 1-191, (S)-(6-(2-methoxyphenyl)-3-(3-(5-methylpyridin-2-yloxy)pyrrolidin-1-yl)pyridin-2-yl)methanol] | > 1000 nM | > 3200 nM | – | – | –
19 | Cc1cccnc1O[C@H]1CCN(c2ccc(-c3ccccc3C#N)nc2CO)C1 [Compound 1-192, (S)-2-(6-(hydroxymethyl)-5-(3-(3-methylpyridin-2-yloxy)pyrrolidin-1-yl)pyridin-2-yl)benzonitrile] | > 1000 nM | > 3200 nM | > 1000 nM | ~2750 nM | –
20 | Cc1cccnc1O[C@H]1CCN(c2ccc(-c3ccccc3)cc2CCO)C1 [Compound 1-193, (S)-2-(4-(3-(3-methylpyridin-2-yloxy)pyrrolidin-1-yl)biphenyl-3-yl)ethanol] | 100 to 1000 nM | 260 nM | – | – | –
21 | Cc1ccccc1-c1ccc(N2CC[C@H](Oc3ccc(Cl)cn3)C2)c(CO)n1 [Compound 1-195, (S)-(3-(3-(5-chloropyridin-2-yloxy)pyrrolidin-1-yl)-6-o-tolylpyridin-2-yl)methanol] | 100 to 1000 nM | 106 nM | 10 to 100 nM | 71.3 nM | –
22 | CCc1ccccc1-c1ccc(N2CC[C@H](Oc3ccc(C(F)(F)F)cn3)C2)c(CO)n1 [Compound 1-196, (S)-(6-(2-ethylphenyl)-3-(3-(5-(trifluoromethyl)pyridin-2-yloxy)pyrrolidin-1-yl)pyridin-2-yl)methanol] | > 1000 nM | > 3200 nM | – | – | –
23 | Cc1ccccc1-c1ccc(N2CC[C@H](Oc3ncccc3C)C2)c(CCO)c1 [Compound 1-198, (S)-2-(2′-methyl-4-(3-(3-methylpyridin-2-yloxy)pyrrolidin-1-yl)biphenyl-3-yl)ethanol] | 100 to 1000 nM | 184 nM | – | – | –
24 | OCc1nc(Oc2ccccc2)ccc1N1CC[C@H](Oc2ccc(C(F)(F)F)cn2)C1 [Compound 1-199, (S)-(6-phenoxy-3-(3-(5-(trifluoromethyl)pyridin-2-yloxy)pyrrolidin-1-yl)pyridin-2-yl)methanol] | – | – | – | – | IC50 (hTRPV3 Patch P1 Inwd (nM)): > 1000 nM; IC50 (hTRPV3 Patch P2 Inwd (nM)): > 1000 nM; IC50 (read-out: hTRPV3 (nM) (Phase 1)): > 3200 nM; IC50 (read-out: hTRPV3 (nM) (Phase 2)): > 3200 nM
25 | Cc1ccc(O[C@H]2CCN(c3ccc(-c4ccccc4C)nc3CCO)C2)nc1 [Compound 1-200, (S)-2-(3-(3-(5-methylpyridin-2-yloxy)pyrrolidin-1-yl)-6-o-tolylpyridin-2-yl)ethanol] | 100 to 1000 nM | 709 nM | – | – | –
26 | CCc1ccccc1-c1ccc(N2CC[C@H](Oc3ccc(Cl)cn3)C2)c(CO)n1 [Compound 1-201, (S)-(3-(3-(5-chloropyridin-2-yloxy)pyrrolidin-1-yl)-6-(2-ethylphenyl)pyridin-2-yl)methanol] | > 1000 nM | > 3200 nM | – | – | –
27 | COc1ccccc1-c1ccc(N2CC[C@H](Oc3ccc(Cl)cn3)C2)c(CO)n1 [Compound 1-202, (S)-(3-(3-(5-chloropyridin-2-yloxy)pyrrolidin-1-yl)-6-(2-methoxyphenyl)pyridin-2-yl)methanol] | – | – | – | – | hTRPV3 (nM) (Phase 1) (Phase 1 current): Incomplete Block (Phase 1)
28 | CCOC(=O)c1nc(-c2ccccc2)sc1N1CC[C@H](Oc2ccc(C(F)(F)F)cn2)C1 [Compound 1-206, (S)-ethyl 2-phenyl-5-(3-(5-(trifluoromethyl)pyridin-2-yloxy)pyrrolidin-1-yl)thiazole-4-carboxylate] | > 1000 nM | 2670 nM | – | – | –
29 | Cc1ccccc1-c1ccc(N2CC[C@H](Oc3ccc(F)cn3)C2)c(CO)n1 [Compound 1-207, (S)-(3-(3-(5-fluoropyridin-2-yloxy)pyrrolidin-1-yl)-6-o-tolylpyridin-2-yl)methanol] | 100 to 1000 nM | 283 nM | – | – | –
30 | CCc1ccccc1-c1ccc(N2CC[C@H](Oc3ccc(F)cn3)C2)c(CO)n1 [Compound 1-208] | > 1000 nM | – | 100 to 1000 nM | – | –
31 | N#Cc1ccccc1-c1ccc(N2CC[C@H](Oc3ccc(F)cn3)C2)c(CO)n1 [Compound 1-210, (S)-2-(5-(3-(5-fluoropyridin-2-yloxy)pyrrolidin-1-yl)-6-(hydroxymethyl)pyridin-2-yl)benzonitrile] | 100 to 1000 nM | 972 nM | – | – | –
32 | Cc1ccc(O[C@H]2CCN(c3ccc(Oc4ccccc4)nc3CO)C2)nc1 [Compound 1-211] | 100 to 1000 nM | 931 nM | 100 to 1000 nM | 936 nM | –
33 | COc1ccccc1-c1ccc(N2CC[C@H](Oc3ncccc3F)C2)c(CO)n1 [Compound 1-213, (S)-(3-(3-(3-fluoropyridin-2-yloxy)pyrrolidin-1-yl)-6-(2-methoxyphenyl)pyridin-2-yl)methanol] | > 1000 nM | 2790 nM | – | – | –
